Source: publication PMC6315362, “Cytotoxic Potential of the Novel Horseshoe Crab Peptide Polyphemusin III” (Marine Drugs, 2018)
Where a SMILES comes first, the peptide text is derived from it. Bridges are numbered along the chain shown (N, C = ends).

How the values were obtained:
[1] = test system: Gram-negative and Gram-positive bacteria; conditions: natural and synthetic peptides; cited from earlier work
Description: Our experimental data for the obtained recombinant PM I are in line with those obtained earlier for synthetic PM I against Gram-negative and Gram-positive bacteria (with reported MICs not exceeding 1 μM).

[2] = test system: A549 (human lung carcinoma cells); assay type: cell-based; conditions: MTT after 48 h, DMEM/F12 with 10% FBS, mean ± SD of at least three independent experiments
Description: (§1) Cytotoxic activities of PM III, its isoforms, and tachyplesins against seven human cell lines were evaluated. Four cancer (HL-60 acute promyelocytic leukemia, HeLa cervix adenocarcinoma, SK-BR-3 breast adenocarcinoma, A549 lung carcinoma), one transformed (HEK 293T transformed human embryonic kidney), and two normal human cell lines (HEF human embryonic fibroblasts and NHA normal human astrocytes) were used for these experiments. Cytotoxicity was measured by incubating the cells with serial dilutions of PM I, PM II, PM III, TP I, TP II, or TP III samples followed by MTT assay after 48 h. The half-maximal inhibitory concentrations (IC50) were measured as the peptide concentration at which cell viability was reduced by 50% in comparison to untreated cells (Table 3).
(§2) The following tumor and transformed cell lines were used in this study: HL-60 (acute promyelocytic leukemia), HeLa (human cervix adenocarcinoma cells), SK-BR-3 (human breast adenocarcinoma cells), A549 (human lung carcinoma cells), HEK 293T (transformed human embryonic kidney cells), HEF (human embryonic fibroblasts), and NHA (normal human astrocytes) were used as normal cell lines. Tumor and transformed cell lines were obtained from the American Type Culture Collection (ATCC; www.atcc.org). Primary cells HEF (normal human embryonic fibroblasts derived from human embryonic stem cells) and NHA (normal human astrocytes derived from human fetal brain tissue) were obtained and cultured according to the corresponding protocol. Briefly, cells were cultured in DMEM/F12 (1:1) or RPMI-1640 medium containing 10% fetal bovine serum (Invitrogen, USA) at 37 °C in the atmosphere containing 5% CO2 and 95% air according to standard mammalian tissue culture protocols and using a sterile technique. All cell lines were tested by using the LookOut® Mycoplasma PCR Detection Kit (Sigma-Aldrich, St. Louis, MO, USA) according to the manufacturer’s protocol and found to be free of Mycoplasma infection.
(§3) The colorimetric 3-(4,5-dimethylthiazol-2-yl)-2,5-diphenyltetrazolium bromide (MTT) dye reduction assay was used to determine the cytotoxicity of the polyphemusins and tachyplesins. Cells (3 × 10^3–6 × 10^3 per well) were placed into 96-well plates in Dulbecco’s modified Eagle’s medium (DMEM/F12) supplemented with 10% fetal bovine serum (FBS). After incubation in the atmosphere containing 5% CO2 and 95% air at 37 °C overnight, the media were discarded, and polyphemusins or tachyplesins solutions were added to the cell cultures up to final concentrations of 2.5, 5, 10, 25, and 50 μM in a final volume of 0.1 mL DMEM/F12 with 10% FBS. HL-60 cells (4 × 10^4 in 50 μL) were added to two-time serial dilutions of polyphemusins solutions at a final concentration of 1.25, 2.5, 5, 10, 25, and 50 μM in 50 μL RPMI-1640 with 10% FBS. 48 hours later, 20 μL of MTT (5 mg/mL) was added into each well and the plates were incubated for 3 h at 37 °C. The plates with HL-60 cells were centrifuged for 10 min at 300 g. The media were discarded and 0.1 mL of dimethyl sulfoxide and isopropanol mixture at a ratio of 1:1 (v/v) was added to each well to dissolve the crystallized formazan. The absorbance at 570 nm was measured by a microplate reader (Eppendorf, Hamburg, Germany).

[3] = test system: HL-60 (acute promyelocytic leukemia); assay type: cell-based, human; conditions: MTT after 48 h, RPMI-1640 with 10% FBS, mean ± SD of at least three independent experiments
Description: as §1, §2, §3

M. luteus B-1314 = assay: Antimicrobial assay, broth microdilution MIC; assay type: cell-based, Micrococcus luteus; conditions: M. luteus B-1314, Gram +, MH medium with NaCl, 24 h 37 °C, median of three independent triplicated experiments
Description: Bacterial test cultures were grown in the Mueller-Hinton (MH) medium at 37 °C to mid-log phase and then diluted with the 2 x MH medium supplemented with 1.8% NaCl. 50 µL of the bacterial suspension with a final cell concentration of 10^6 CFU/mL were added to aliquots of 50 µL of the peptide solutions and serially diluted with sterilized 0.1% bovine serum albumin in 96-well flat-bottom polystyrene microplates (Eppendorf, Hamburg, Germany). Bacterial cells were incubated for 24 h at 37 °C and 900 rpm on the plate thermoshaker (Biosan, Riga, Latvia). The minimum inhibitory concentrations (MIC) were determined as the lowest peptide concentration that prevented growth of a test microorganism observed as visible turbidity. The results were expressed as median values of three independent triplicated experiments. Assessment of antimicrobial activities of the recombinant PM III, other polyphemusins, and tachyplesins was conducted against Gram-negative (Escherichia coli ML-35p, Klebsiella pneumoniae (clinical isolate, CI 287), Pseudomonas aeruginosa PAO1) and Gram-positive (Staphylococcus aureus ATCC 29213, Staphylococcus aureus 209P, Bacillus subtilis B-886, Micrococcus luteus B-1314) bacteria.

HL-60 cells = assay: Annexin V-FITC/propidium iodide double staining and flow cytometry; assay type: cell-based, human; conditions: for double-stained cells, Q2-2 (AV+PI+, late apoptotic/necrotic): 4 h
Source text: To further investigate the effect of PM III on human cells, we performed annexin V-FITC/propidium iodide double staining with subsequent flow cytometric analysis. Annexin V-FITC binds to phosphatidylserine, which is exposed on the outer leaflet of the cellular plasma membrane at the initial stages of apoptosis, whereas propidium iodide (PI) preferentially stains nuclei of dead cells. Therefore, a combination of annexin V-FITC and PI assays allows differentiation between early apoptotic and late apoptotic/necrotic cell populations. PM III was used at two final concentrations of 2.5 and 5 μM. In order to elucidate the predominant mechanism of the PM III action, we applied a widely used caspase inhibitor, Z-VAD-FMK [23].
Cell death analysis with fluorescein isothiocyanate conjugated annexin V (annexin V-FITC)/propidium iodide double staining and dead cells counting with flow cytometry were performed 4 h after addition of polyphemusin III up to a final concentration of 2.5 or 5 μM. The Annexin V-FITC Apoptosis Detection Kit (BD Biosciences, Franklin Lakes, NJ, USA) was used according to the manufacturer’s protocol on a NovoCyte flow cytometer (ACEA Biosciences, San Diego, CA, USA). Each experiment was performed in triplicate. The apoptosis inducer camptothecin (Sigma-Aldrich, St. Louis, MO, USA) and the general caspase inhibitor, Z-VAD-FMK (BD Biosciences, Franklin Lakes, NJ, USA), were used. All flow cytometry experiments were performed twice.

Row | SMILES | MICs [1] | IC50 [2] [µM] | IC50 [3] [µM] | MICs (M. luteus B-1314) [µM] | double-stained cells, Q2-2 (AV+PI+, late apoptotic/necrotic) (HL-60 cells; HL-60, 2.5 µM, 50 μM Z-VAD-FMK added) [%] | double-stained cells, Q2-2 (AV+PI+, late apoptotic/necrotic) (HL-60 cells; HL-60, 2.5 µM, no Z-VAD-FMK) [%] | double-stained cells, Q2-2 (AV+PI+, late apoptotic/necrotic) (HL-60 cells; HL-60, 5 µM, 50 μM Z-VAD-FMK added) [%] | double-stained cells, Q2-2 (AV+PI+, late apoptotic/necrotic) (HL-60 cells; HL-60, 5 µM, no Z-VAD-FMK) [%] | influence of the caspase inhibitor Z-VAD-FMK on the effect of the substance (annexin V-FITC/PI staining) (HL-60 cells; HL-60, 4 h of incubation, 50 μM Z-VAD-FMK)
1 | CC[C@H](C)[C@@H]1NC(=O)CNC(=O)[C@H](CCCNC(=N)N)NC(=O)[C@H](Cc2ccc(O)cc2)NC(=O)[C@@H]2CSSC[C@H](NC1=O)C(=O)N[C@@H](Cc1ccc(O)cc1)C(=O)N[C@@H](CCCNC(=N)N)C(=O)N[C@@H](CCCNC(=N)N)C(=O)N[C@H](C(=O)N[C@@H](CCCNC(=N)N)C(=O)O)CSSC[C@H](NC(=O)[C@H](Cc1c[nH]c3ccccc13)NC(=O)[C@@H](N)CCCCN)C(=O)N[C@@H](Cc1ccccc1)C(=O)N[C@@H](CCCNC(=N)N)C(=O)N[C@@H](C(C)C)C(=O)N2 [TP I, tachyplesin I] (H-KWCFRVCYRGICYRRCR-OH; disulfide 3-16, 7-12 (inferred); N-terminus assumed) | exceeding 1 μM | 26.5 ± 1.2 | 4.8 ± 0.3 | 1 | – | – | – | – | –
2 | CC(C)[C@@H]1NC(=O)[C@H](CCCNC(=N)N)NC(=O)[C@H](Cc2ccccc2)NC(=O)[C@@H](NC(=O)[C@H](Cc2c[nH]c3ccccc23)NC(=O)[C@H](CCCNC(=N)N)NC(=O)[C@@H](N)CCCNC(=N)N)CSSC[C@@H](C(=O)N[C@@H](CCCNC(=N)N)C(=O)O)NC(=O)[C@H](CCCCN)NC(=O)[C@H](CCCNC(=N)N)NC(=O)[C@H](Cc2ccc(O)cc2)NC(=O)[C@@H]2CSSC[C@H](NC1=O)C(=O)N[C@@H](Cc1ccc(O)cc1)C(=O)N[C@@H](CCCCN)C(=O)NCC(=O)N[C@@H](Cc1ccccc1)C(=O)N2 [PM II, polyphemusin II] (H-RRWCFRVCYKGFCYRKCR-OH; disulfide 4-17, 8-13 (inferred); N-terminus assumed) | exceeding 1 μM | 10.8 ± 1.9 | 7.2 ± 0.5 | 1 | – | – | – | – | –
3 | CC(C)[C@@H]1NC(=O)[C@H](CCCNC(=N)N)NC(=O)[C@H](Cc2ccccc2)NC(=O)[C@@H](NC(=O)[C@H](Cc2c[nH]c3ccccc23)NC(=O)[C@H](CCCNC(=N)N)NC(=O)[C@@H](N)CCCNC(=N)N)CSSC[C@@H](C(=O)N[C@@H](CCCNC(=N)N)C(=O)O)NC(=O)[C@H](CCCCN)NC(=O)[C@H](CCCNC(=N)N)NC(=O)[C@H](Cc2ccc(O)cc2)NC(=O)[C@@H]2CSSC[C@H](NC1=O)C(=O)N[C@@H](Cc1ccc(O)cc1)C(=O)N[C@@H](CCCNC(=N)N)C(=O)NCC(=O)N[C@@H](Cc1ccccc1)C(=O)N2 [PM I, polyphemusin I] (H-RRWCFRVCYRGFCYRKCR-OH; disulfide 4-17, 8-13 (inferred); N-terminus assumed) | exceeding 1 μM | 8.8 ± 1.3 | 7.2 ± 0.5 | 0.5 | – | – | – | – | –
4 | CC(C)[C@@H]1NC(=O)[C@H](CCCNC(=N)N)NC(=O)[C@H](Cc2ccccc2)NC(=O)[C@@H](NC(=O)CNC(=O)[C@H](CCCNC(=N)N)NC(=O)[C@@H](N)CCCNC(=N)N)CSSC[C@@H](C(=O)N[C@@H](CCCNC(=N)N)C(=O)O)NC(=O)[C@H](CCCNC(=N)N)NC(=O)[C@H](CCC(N)=O)NC(=O)[C@H](Cc2ccccc2)NC(=O)[C@@H]2CSSC[C@H](NC1=O)C(=O)N[C@@H](Cc1ccc(O)cc1)C(=O)N[C@@H](CCCNC(=N)N)C(=O)NCC(=O)N[C@@H](Cc1ccccc1)C(=O)N2 [PM III, polyphemusin III] (H-RRGCFRVCYRGFCFQRCR-OH; disulfide 4-17, 8-13 (inferred); N-terminus assumed) | – | – | 2.5 ± 0.1 | 0.5 | > 30 | > 40 | > 70 | > 80 | almost not affected
5 | CC[C@H](C)[C@@H]1NC(=O)CNC(=O)[C@H](CCCNC(=N)N)NC(=O)[C@H](Cc2ccc(O)cc2)NC(=O)[C@@H]2CSSC[C@H](NC1=O)C(=O)N[C@@H](Cc1ccc(O)cc1)C(=O)N[C@@H](CCCNC(=N)N)C(=O)N[C@@H](CCCCN)C(=O)N[C@H](C(=O)N[C@@H](CCCNC(=N)N)C(=O)O)CSSC[C@H](NC(=O)[C@H](Cc1c[nH]c3ccccc13)NC(=O)[C@@H](N)CCCNC(=N)N)C(=O)N[C@@H](Cc1ccccc1)C(=O)N[C@@H](CCCNC(=N)N)C(=O)N[C@@H](C(C)C)C(=O)N2 [TP II, tachyplesin II] (H-RWCFRVCYRGICYRKCR-OH; disulfide 3-16, 7-12 (inferred); N-terminus assumed) | exceeding 1 μM | 28.1 ± 1.7 | 5.6 ± 0.5 | 1 | – | – | – | – | –
6 | CC[C@H](C)[C@@H]1NC(=O)CNC(=O)[C@H](CCCNC(=N)N)NC(=O)[C@H](Cc2ccc(O)cc2)NC(=O)[C@@H]2CSSC[C@H](NC1=O)C(=O)N[C@@H](Cc1ccc(O)cc1)C(=O)N[C@@H](CCCNC(=N)N)C(=O)N[C@@H](CCCCN)C(=O)N[C@H](C(=O)N[C@@H](CCCNC(=N)N)C(=O)O)CSSC[C@H](NC(=O)[C@H](Cc1c[nH]c3ccccc13)NC(=O)[C@@H](N)CCCCN)C(=O)N[C@@H](Cc1ccccc1)C(=O)N[C@@H](CCCNC(=N)N)C(=O)N[C@@H](C(C)C)C(=O)N2 [TP III, tachyplesin III] (H-KWCFRVCYRGICYRKCR-OH; disulfide 3-16, 7-12 (inferred); N-terminus assumed) | – | 15.3 ± 1 | 5 ± 0.4 | 2 | – | – | – | – | –
